The supplement of paper PMC10627819

Experiments:
S. aureus Newman [1] = assay: fitness (endpoint OD595 vs no drug) (fraction); higher = more growth
Summary of the method: (§1)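 Growth medium was TSB, LB Lennox or CY, and plates were kept at 37 °C. Inoculation was at OD595 0.01 in 384-well plates, at 30 µl per well or 55 µl for S. pneumoniae. OD595 was monitored every 30 min for 14 h and background-subtracted using the first reading. Fitness is the optical density on entering stationary phase divided by the robust mean of no-drug controls, with values capped at 1.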

S. aureus DSM 20231 [2] = assay: as above
Summary of the method: as §1

B. subtilis 168 [3] = assay: as above
Summary of the method: as §1

S. pneumoniae D39V [4] = assay: as above
Summary of the method: as §1

S. aureus Newman [5] = assay: Bliss interaction score (quartile over a dose matrix) (fitness difference); higher = more antagonism (negative = synergy)
Summary of the method: (§2)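 The Bliss score is observed minus expected fitness, where expected fitness is the product of the single-drug fitness values inferred from the combination data. Fitness is the OD595 at the onset of stationary phase over the plate's robust no-drug mean, capped at 1. Scores are summarised by quartiles over technical, biological and donor/recipient replicates.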

S. aureus DSM 20231 [6] = assay: as above
Summary of the method: as §2

B. subtilis 168 [7] = assay: as above
Summary of the method: as §2

S. pneumoniae D39V [8] = assay: as above
Summary of the method: as §2
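Wherever Bliss interaction score (quartile over a dose matrix) is given: first quartile when negative (synergy) and third quartile when positive (antagonism).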
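Wherever fitness (endpoint OD595 vs no drug) is given: OD595 on entry to stationary phase over no-drug wells; at most 1.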

CO/N=C(\C(=O)N[C@@H]1C(=O)N2C(C(=O)O)=C(COC(C)=O)CS[C@H]12)c1csc(N)n1 [Cefotaxime] + CN[C@@H]1[C@H](O)[C@H](NC)[C@H]2O[C@@]3(O)C(=O)C[C@@H](C)O[C@H]3O[C@@H]2[C@H]1O [Spectinomycin]
fitness
Details	partner 2 µg/mL	partner 4 µg/mL	partner 8 µg/mL	partner 16 µg/mL
B. subtilis 168 [3], first compound 0.5 µg/mL	0.234	0.139	0.0989	–
B. subtilis 168 [3], first compound 1 µg/mL	0.11	0.0503	0.0323	–
B. subtilis 168 [3], first compound 2 µg/mL	0.0973	0.0906	0.091	–
S. aureus DSM 20231 [2], first compound 0.078 µg/mL	–	0.791	0.747	0.714
S. aureus DSM 20231 [2], first compound 0.156 µg/mL	–	0.704	0.754	0.711
S. aureus DSM 20231 [2], first compound 0.312 µg/mL	–	0.68	0.694	0.596
S. aureus Newman [1], first compound 0.078 µg/mL	–	0.697	0.716	0.686
S. aureus Newman [1], first compound 0.156 µg/mL	–	0.582	0.59	0.503
S. aureus Newman [1], first compound 0.312 µg/mL	–	0.272	0.201	0.0958
S. pneumoniae D39V [4], first compound 0.0018 µg/mL	–	0.985	0.944	0.9
S. pneumoniae D39V [4], first compound 0.0035 µg/mL	–	0.97	0.944	0.847
S. pneumoniae D39V [4], first compound 0.007 µg/mL	–	0.834	0.852	0.8

one replicate
Details	fitness
B. subtilis 168 [3], first compound 0.00775 µg/mL, partner 2 µg/mL	0.794
B. subtilis 168 [3], first compound 0.00775 µg/mL, partner 4 µg/mL	0.796
B. subtilis 168 [3], first compound 0.00775 µg/mL, partner 8 µg/mL	0.816
B. subtilis 168 [3], first compound 0.0155 µg/mL, partner 2 µg/mL	0.671
B. subtilis 168 [3], first compound 0.0155 µg/mL, partner 4 µg/mL	0.748
B. subtilis 168 [3], first compound 0.0155 µg/mL, partner 8 µg/mL	0.571
B. subtilis 168 [3], first compound 0.031 µg/mL, partner 2 µg/mL	0.521
B. subtilis 168 [3], first compound 0.031 µg/mL, partner 4 µg/mL	0.519
B. subtilis 168 [3], first compound 0.031 µg/mL, partner 8 µg/mL	0.258
S. aureus DSM 20231 [2], first compound 0.039 µg/mL, partner 4 µg/mL	0.72
S. aureus DSM 20231 [2], first compound 0.039 µg/mL, partner 8 µg/mL	0.747
S. aureus DSM 20231 [2], first compound 0.039 µg/mL, partner 16 µg/mL	0.707
S. aureus DSM 20231 [2], first compound 0.078 µg/mL, partner 32 µg/mL	0.597
S. aureus DSM 20231 [2], first compound 0.078 µg/mL, partner 64 µg/mL	0.0453
S. aureus DSM 20231 [2], first compound 0.156 µg/mL, partner 32 µg/mL	0.632
S. aureus DSM 20231 [2], first compound 0.156 µg/mL, partner 64 µg/mL	0.0727
S. aureus DSM 20231 [2], first compound 0.312 µg/mL, partner 32 µg/mL	0.583
S. aureus DSM 20231 [2], first compound 0.312 µg/mL, partner 64 µg/mL	0.0287
S. aureus Newman [1], first compound 0.078 µg/mL, partner 32 µg/mL	0.328
S. aureus Newman [1], first compound 0.078 µg/mL, partner 64 µg/mL	0.0751
S. aureus Newman [1], first compound 0.156 µg/mL, partner 32 µg/mL	0.0776
S. aureus Newman [1], first compound 0.156 µg/mL, partner 64 µg/mL	0.0848
S. aureus Newman [1], first compound 0.312 µg/mL, partner 32 µg/mL	0.0307
S. aureus Newman [1], first compound 0.312 µg/mL, partner 64 µg/mL	0.0805
S. aureus Newman [1], first compound 0.625 µg/mL, partner 4 µg/mL	0.0066
S. aureus Newman [1], first compound 0.625 µg/mL, partner 8 µg/mL	0.0296
S. aureus Newman [1], first compound 0.625 µg/mL, partner 16 µg/mL	0.021
S. aureus Newman [1], first compound 1.25 µg/mL, partner 4 µg/mL	0.0276
S. aureus Newman [1], first compound 1.25 µg/mL, partner 8 µg/mL	0.0141
S. aureus Newman [1], first compound 1.25 µg/mL, partner 16 µg/mL	0.0089
S. aureus Newman [1], first compound 2.5 µg/mL, partner 4 µg/mL	0.0608
S. aureus Newman [1], first compound 2.5 µg/mL, partner 8 µg/mL	0.0355
S. aureus Newman [1], first compound 2.5 µg/mL, partner 16 µg/mL	0.0355

Details	Bliss interaction score
B. subtilis 168 [7]	-0.0623
S. aureus DSM 20231 [6]	0.0658
S. aureus Newman [5]	-0.0972
S. pneumoniae D39V [8]	0.108
